The values below come from patent publication US20230126391A1, “ALPHA-METHYL-SUBSTITUTED DIAZABICYCLO[4.3.1] DECANE DERIVATIVES FOR TREATMENT OF PSYCHIATRIC DISORDERS” (priority 2020, published 2023).

Assay [1] has as its target T1, FKBP51 (Homo sapiens, UniProt Q13451).
T1 sequence (Q13451 1-457): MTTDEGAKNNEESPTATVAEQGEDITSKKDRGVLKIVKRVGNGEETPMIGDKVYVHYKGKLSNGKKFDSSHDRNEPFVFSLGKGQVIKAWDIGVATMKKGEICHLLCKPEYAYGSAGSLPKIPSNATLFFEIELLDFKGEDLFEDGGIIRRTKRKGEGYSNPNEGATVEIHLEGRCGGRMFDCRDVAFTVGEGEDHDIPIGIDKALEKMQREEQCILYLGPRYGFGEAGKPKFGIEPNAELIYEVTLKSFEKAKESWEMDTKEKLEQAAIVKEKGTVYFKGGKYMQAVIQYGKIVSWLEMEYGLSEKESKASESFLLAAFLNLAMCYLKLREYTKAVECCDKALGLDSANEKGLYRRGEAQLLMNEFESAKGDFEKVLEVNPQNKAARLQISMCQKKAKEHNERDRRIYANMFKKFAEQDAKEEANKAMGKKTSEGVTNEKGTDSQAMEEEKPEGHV
Put plainly: FP assay, binding to human FKBPs (Table 1). The following applies: fluorescence polarization assay.

Assay [2] addresses T2, FKBP52 (Homo sapiens, UniProt Q02790).
T2 sequence (Q02790 1-459): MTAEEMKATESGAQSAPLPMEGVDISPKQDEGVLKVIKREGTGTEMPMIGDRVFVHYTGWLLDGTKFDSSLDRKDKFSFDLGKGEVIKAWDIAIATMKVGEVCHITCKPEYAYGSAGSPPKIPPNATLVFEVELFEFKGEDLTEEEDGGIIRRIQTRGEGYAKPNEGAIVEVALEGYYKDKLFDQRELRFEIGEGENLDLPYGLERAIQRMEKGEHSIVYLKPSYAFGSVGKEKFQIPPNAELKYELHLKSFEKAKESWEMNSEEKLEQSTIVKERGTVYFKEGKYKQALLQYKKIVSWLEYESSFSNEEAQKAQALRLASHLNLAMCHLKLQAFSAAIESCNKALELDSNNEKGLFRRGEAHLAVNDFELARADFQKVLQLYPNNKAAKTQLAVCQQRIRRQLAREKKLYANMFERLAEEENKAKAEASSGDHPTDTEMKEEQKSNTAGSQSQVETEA
As to the kind of experiment: FP assay, binding to human FKBPs (Table 1). The following applies: fluorescence polarization assay.

The target of assay [3] is T3, FKBP12 (Homo sapiens, UniProt P62942). As to the kind of experiment: FP assay, binding to human FKBPs (Table 1). The following applies: fluorescence polarization assay.
T3 sequence (P62942 whole entry): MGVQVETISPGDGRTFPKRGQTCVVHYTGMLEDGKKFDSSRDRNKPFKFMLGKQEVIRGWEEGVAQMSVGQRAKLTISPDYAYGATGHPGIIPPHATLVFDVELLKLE
In assay [4] the target is T4, FKBP12.6 (Homo sapiens, UniProt P68106). As to the kind of experiment: FP assay, binding to human FKBPs (Table 1). The following applies: fluorescence polarization assay.
T4 sequence (P68106 whole entry): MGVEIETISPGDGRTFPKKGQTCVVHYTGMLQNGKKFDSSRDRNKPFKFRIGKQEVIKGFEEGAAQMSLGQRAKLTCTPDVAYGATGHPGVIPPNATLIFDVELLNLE
The target in assay [5] is LpMip (Legionella pneumophila subsp. pneumophila, UniProt Q5ZXE0). As to the kind of experiment: biochemical. The format is binding.
Sequence of LpMip (Q5ZXE0 21-233 limits assumed): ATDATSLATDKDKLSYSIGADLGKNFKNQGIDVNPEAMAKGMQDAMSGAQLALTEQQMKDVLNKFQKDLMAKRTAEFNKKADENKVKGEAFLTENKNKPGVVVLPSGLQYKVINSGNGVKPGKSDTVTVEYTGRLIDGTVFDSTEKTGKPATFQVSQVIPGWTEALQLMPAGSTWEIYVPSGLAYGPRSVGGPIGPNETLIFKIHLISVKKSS
For assay [6], the target named is T4, FKBP12.6. As to the kind of experiment: Binding affinity of ligands with large RA (E3-ligase CRBN, PEG linker). The following applies: * = detection limit. From the text:
(§1) Further example of a diazabicyclo[4.3.1]decane with a large, bulky substituent in RA. The n corresponds to a varying PEG-linker length of 1-5. All tested ligands with a S-methyl group display increased binding affinity to the tested FKBPs while all R-isomers display decreased binding affinity as shown in the table below. In all cases, the addition of the methyl group in S-configuration increases the affinity to all measured FKBPs substantially.

Assay [7] concerns the target T5, FKBP51FK1 (Homo sapiens, UniProt Q13451).
T5 construct: FKBP51FK1
T5 sequence (Q13451 42-130 limits assumed): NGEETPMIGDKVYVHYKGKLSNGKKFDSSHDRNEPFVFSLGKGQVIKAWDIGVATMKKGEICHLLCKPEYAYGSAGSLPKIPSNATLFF
The description is as above.
Excerpt: as §1

Assay [8] addresses T3, FKBP12. The assay is described as above. The following applies: * = detection limit.
Excerpt: as §1

Assay [9] deals with T6, FKBP52FK1 (Homo sapiens, UniProt Q02790).
T6 construct: FKBP52FK1
T6 sequence (Q02790 50-138 limits assumed): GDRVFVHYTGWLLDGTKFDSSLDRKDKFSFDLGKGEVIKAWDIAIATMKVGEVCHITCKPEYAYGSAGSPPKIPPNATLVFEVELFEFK
The description is as above.
Excerpt: as §1

Each structure is given as a SMILES string. Like-named read-outs stand apart in the source and are kept apart here.

Take `C[C@@H](c1ccccn1)N1C[C@H](CO)[C@H]2CCC[C@@H](C1=O)N2S(=O)(=O)c1cc(Cl)cc(Cl)c1` [23b, (1S,5S,6R)-10-((3,5-dichlorophenyl)sulfonyl)-5-(hydroxymethyl)-3-((S)-1-(pyridin-2-yl)ethyl)-3,10-diazabicyclo[4.3.1]decan-2-one]: the Ki is 1.9 nM in [1]; 1.2 nM in assay [2]; 0.06 nM in [3]; 0.31 nM in assay [4]; 36 nM in [5].
Regarding `COC[C@H]1CN(Cc2ccccn2)C(=O)[C@@H]2CCC[C@H]1N2S(=O)(=O)c1cc(Cl)cc(Cl)c1` [24a], the Ki in assay [1] came out at 12 nM; in assay [2], 11 nM; in [3], 0.65 nM; in assay [4], 3.4 nM; in [5] (read-out: Ki LpMip) it was 497 nM.
In the case of `COC[C@H]1CN([C@@H](C)c2ccccn2)C(=O)[C@@H]2CCC[C@H]1N2S(=O)(=O)c1cc(Cl)cc(Cl)c1` [24b, (1S,5S,6R)-10-((3,5-dichlorophenyl)sulfonyl)-5-(methoxymethyl)-3-((S)-1-(pyridin-2-yl)ethyl)-3,10-diazabicyclo[4.3.1]decan-2-one], the Ki in assay [1] turned out to be 0.83 nM; in assay [2] it was 0.35 nM; in assay [3], 0.04 nM; in [4] it was 0.41 nM; in [5], 36 nM.
On to `O=C1[C@@H]2CCC[C@H]([C@@H](CO)CN1Cc1ccccn1)N2S(=O)(=O)c1ccc2ncsc2c1` [25a], for which the inhibition constant Ki is 283 nM in assay [1]; 190 nM in assay [2]; 5.5 nM in assay [3]; 3.8 nM in [4]; 3980 nM in [5] (read-out: Ki LpMip).
The corresponding values for `CC[C@H]1CN(Cc2ccccn2)C(=O)[C@@H]2CCC[C@H]1N2S(=O)(=O)c1ccc2ncsc2c1` [26a] are 410 nM, 285 nM, 6.5 nM, 5.2 nM and 5150 nM.
On to `CC[C@H]1CN([C@@H](C)c2ccccn2)C(=O)[C@@H]2CCC[C@H]1N2S(=O)(=O)c1ccc2ncsc2c1` [26b, (1S,5S,6R)-10-(benzo[d]thiazol-6-ylsulfonyl)-5-ethyl-3-((S)-1-(pyridin-2-yl)ethyl)-3,10-diazabicyclo[4.3.1]decan-2-one], for which the Ki in assay [1] is 27 nM; in assay [2], 22 nM; in assay [3], 1.9 nM; in assay [4], 0.6 nM; in assay [5] it was 284 nM.
For the compound `C=C[C@H]1CN(Cc2cn(CCOCC(=O)Nc3cccc4c3C(=O)N(C3CCC(=O)NC3=O)C4=O)nn2)C(=O)[C@@H]2CCC[C@H]1N2S(=O)(=O)c1cc(Cl)cc(Cl)c1` (stereo partly shown) [MTQ503], the inhibitory constant (Ki) in assay [6] worked out at 0.46 ± 0.1 nM; in [7] it was 8 ± 1 nM; in [8], 0.2 ± 0.03 nM; in assay [9], 1.9 ± 0.5 nM.
Consider `C=C[C@H]1CN(Cc2cn(CCOCCOCC(=O)Nc3cccc4c3C(=O)N(C3CCC(=O)NC3=O)C4=O)nn2)C(=O)[C@@H]2CCC[C@H]1N2S(=O)(=O)c1cc(Cl)cc(Cl)c1` (stereo partly shown) [MTQ504], for which the inhibition constant (Ki) amounted to 17 ± 1.3 nM in assay [6], 25 ± 6 nM in assay [7], 2.1 ± 0.2 nM in assay [8] and 43 ± 11 nM in assay [9].
Taken in the same sequence, the figures for `C=C[C@H]1CN(Cc2cn(CCOCCOCCOCC(=O)Nc3cccc4c3C(=O)N(C3CCC(=O)NC3=O)C4=O)nn2)C(=O)[C@@H]2CCC[C@H]1N2S(=O)(=O)c1cc(Cl)cc(Cl)c1` (stereo partly shown) [MTQ505] were 21 ± 2 nM, 17 ± 4 nM, 2.4 ± 0.2 nM and 16 ± 5 nM.
Turning to `C=C[C@H]1CN(Cc2cn(CCOCCOCCOCCOCC(=O)Nc3cccc4c3C(=O)N(C3CCC(=O)NC3=O)C4=O)nn2)C(=O)[C@@H]2CCC[C@H]1N2S(=O)(=O)c1cc(Cl)cc(Cl)c1` (stereo partly shown) [MTQ506], the inhibitory constant (Ki) worked out at 19 ± 2 nM in assay [6], 28 ± 5 nM in [7], 1.5 ± 0.2 nM in assay [8] and 30 ± 8 nM in assay [9].
As to `C=C[C@H]1CN(Cc2cn(CCOCCOCCOCCOCCOCC(=O)Nc3cccc4c3C(=O)N(C3CCC(=O)NC3=O)C4=O)nn2)C(=O)[C@@H]2CCC[C@H]1N2S(=O)(=O)c1cc(Cl)cc(Cl)c1` (stereo partly shown) [MTQ507], the Ki amounted to 10 ± 1.2 nM in [6], 12 ± 2 nM in assay [7], 0.7 ± 0.1 nM in [8] and 60 ± 12 nM in assay [9].
The corresponding values for `C=C[C@H]1CN([C@@H](C)c2cn(CCOCC(=O)Nc3cccc4c3C(=O)N(C3CCC(=O)NC3=O)C4=O)nn2)C(=O)[C@@H]2CCC[C@H]1N2S(=O)(=O)c1cc(Cl)cc(Cl)c1` (stereo partly shown) [MTQ513] are 0.41 ± 0.2 nM, 2.3 ± 0.4 nM, 0.2 ± 0.02 nM and 0.7 ± 0.3 nM.
Taken in the same sequence, the figures for `C=C[C@H]1CN([C@@H](C)c2cn(CCOCCOCC(=O)Nc3cccc4c3C(=O)N(C3CCC(=O)NC3=O)C4=O)nn2)C(=O)[C@@H]2CCC[C@H]1N2S(=O)(=O)c1cc(Cl)cc(Cl)c1` (stereo partly shown) [MTQ514] were 2.4 ± 0.4 nM, 4.4 ± 1.2 nM, 0.4 ± 0.1 nM and 5.7 ± 1.7 nM.
For the compound `C=C[C@H]1CN([C@@H](C)c2cn(CCOCCOCCOCC(=O)Nc3cccc4c3C(=O)N(C3CCC(=O)NC3=O)C4=O)nn2)C(=O)[C@@H]2CCC[C@H]1N2S(=O)(=O)c1cc(Cl)cc(Cl)c1` (stereo partly shown) [MTQ515], the inhibition constant (Ki) in assay [6] amounted to 4.8 ± 0.5 nM; in assay [7], 3.2 ± 0.9 nM; in assay [8], 0.5 ± 0.1 nM; in assay [9], 5 ± 1.2 nM.
In the case of `C=C[C@H]1CN([C@@H](C)c2cn(CCOCCOCCOCCOCC(=O)Nc3cccc4c3C(=O)N(C3CCC(=O)NC3=O)C4=O)nn2)C(=O)[C@@H]2CCC[C@H]1N2S(=O)(=O)c1cc(Cl)cc(Cl)c1` (stereo partly shown) [MTQ516], the Ki in [6] is 3.7 ± 0.5 nM; in [7], 4.2 ± 0.8 nM; in assay [8], 0.5 ± 0.1 nM; in assay [9] it was 8.4 ± 2.3 nM.
`C=C[C@H]1CN([C@@H](C)c2cn(CCOCCOCCOCCOCCOCC(=O)Nc3cccc4c3C(=O)N(C3CCC(=O)NC3=O)C4=O)nn2)C(=O)[C@@H]2CCC[C@H]1N2S(=O)(=O)c1cc(Cl)cc(Cl)c1` (stereo partly shown) [MTQ517]: the inhibitory constant (Ki) in assay [6] was found to be 1.5 ± 0.3 nM; in [7], 2.1 ± 0.4 nM; in [8], 0.4 ± 0.05 nM; in assay [9] it was 4.9 ± 1.1 nM.
